Assay results reported in article PMC9305971, “Development of [^18F]AmBF3 Tetrazine for Radiolabeling of Peptides: Preclinical Evaluation and PET Imaging of [^18F]AmBF3-PEG7-Tyr^3-Octreotide in an AR42J Pancreatic Carcinoma Model” (Bioconjugate Chemistry, 2022).
Like-named read-outs stand apart in the source and are kept apart here.

Assays:
[1] = Hydrolytic stability in 0.01 M PBS / formulated solution (radio-HPLC); assay type: physicochemical; settings: 4% ethanol-0.01 M PBS (pH 7.4)
Description: (§1) Lipophilicity was determined with the shake-flask method as a distribution coefficient between 0.01 M PBS and octanol. Purified radiotracer [^18F]6 (10 μL, ∼200 kBq, 1.5 nmol), [^18F]14 (20 μL, ∼260 kBq, 125 pmol), or [^18F]15 (20 μL, 144 kBq, 67 pmol) in a polypropylene tube containing 1500–2000 μL of each in a 1:1 mixture (1-octanol, 0.02 M PBS, pH 7.4) was shaken mechanically (500 rpm, 10 min) and centrifuged (1000g, 5 min), and samples from each layer (400 μL, n = 4) were measured with a γ-counter. The log D7.4 was calculated as a distribution between the two layers at pH 7.4. [^18F]6 (10 MBq, 40 nmol) diluted with 0.01 M PBS at pH 7.4 (≤1% ethanol, 5300 μL) was incubated for 180 min. At selected time points (5, 30, 60, 90, 120, 150, and 180 min), a sample (100 μL) was injected to radio-HPLC. [^18F]14 and [^18F]15 (29 MBq, 10 nmol) diluted in 2000 μL of 0.01 M PBS (≤1% ethanol) were left to incubate. A sample of [^18F]14 (100 μL) after 9 hours and [^18F]15 at selected time points between 30 and 335 min were injected into HPLC (method A). [^18F]15 (0.6 MBq, 0.134 nmol, 200 μL) formulated in ≤5% EtOH-1 × PBS was added and incubated in 2000 μL of PBS-50% human plasma at 37 °C. A 100 μL sample (at 60, 120, 180, and 240 min, n = 2) was diluted with 200 μL of cold acetonitrile and centrifuged (10,000g, 5 min). After centrifugation, a 100 μL sample of the supernatant was injected for radio-HPLC analysis.

[2] = Enzymatic stability in 50% human plasma-0.01 M PBS; assay type: in vitro ADME; settings: 50% (v/v) human plasma-0.01 M PBS
Description: as §1, with “After centrifugation, a 100 μL sample of the supernatant was injected for radio-HPLC analysis.” left out

[3] = Ex vivo biodistribution of [18F]14 and [18F]15; assay type: in vivo, Rj:NMRI-Foxn1^nu/nu mice; settings: mouse, iv, 0.2 nmol; for tissue to tissue ratio at 1 h: Rj:NMRI-Foxn1^nu/nu, tumor (AR42J xenograft) / blood, total radioactivity, read-out: T/blood ratio; for tissue to tissue ratio at 1 h / tissue uptake at 1 h: 60 min post injection; for tissue uptake at 1 h / tissue uptake at 2 h: i.v.; for tissue uptake at 2 h: 120 min post injection
Description: (§2) [^18F]14 and [^18F]15 in ≤4% ethanol–0.01 M PBS were administered intravenously (1.2 ± 0.0 and 2.0 ± 0.1 MBq, respectively, 0.2 nmol, 150 μL) to AR42J tumor-bearing Rj:NMRI-Foxn1^nu/nu mice. At predetermined time points (t = 30, 60, 120, and 240 min), animals were euthanized with CO2 asphyxiation and cervical dislocation, and then the organs were harvested, washed with water, and blotted dry, following with weighing and γ counting from which the % ID/g in tissues was determined.

[4] = test system: AR42J xenografts; assay: Ex vivo biodistribution of [18F]14 and [18F]15; assay type: in vivo, Rj:NMRI-Foxn1^nu/nu mice; settings: for urine: 60 min post injection, i.v., baseline; for defluorination in vivo (in words): judged from bone uptake
Description: as §2

[5] = baseline, read-out: gallbladder
[6] = blocked with octreotide, read-out: blood
[7] = blocked with octreotide, read-out: brain
[8] = blocked with octreotide, read-out: gallbladder
[9] = blocked with octreotide, read-out: heart
[10] = blocked with octreotide, read-out: kidney
[11] = blocked with octreotide, read-out: liver
[12] = blocked with octreotide, read-out: lung
[13] = blocked with octreotide, read-out: muscle
[14] = blocked with octreotide, read-out: pancreas
[15] = blocked with octreotide, read-out: skin
[16] = blocked with octreotide, read-out: spleen
[17] = blocked with octreotide, read-out: urine
[18] = large intestine with contents, baseline, read-out: L. I. (+cont.), large intestine
[19] = large intestine with contents, blocked with octreotide, read-out: L. I. (+cont.), large intestine
[20] = occipital bone, blocked with octreotide, read-out: bone, occipital
[21] = occipital bone, read-out: bone, occipital
[22] = small intestine with contents, baseline, read-out: S. I. (+cont.), small intestines
[23] = small intestine with contents, blocked with octreotide, read-out: S. I. (+cont.), small intestines
[24] = stomach with contents, baseline, read-out: stomach (+cont.)
[25] = stomach with contents, blocked with octreotide, read-out: stomach (+cont.)
[26] = tibia bone, baseline, read-out: bone, tibia
[27] = tibia bone, blocked with octreotide, read-out: bone, tibia
[28] = tibia bone, read-out: bone, tibia
[29] = tumor, AR42J xenograft, baseline, read-out: tumor uptake
[30] = tumor, AR42J xenograft, blocked with octreotide, read-out: tumor uptake

In the case of `C[C@@H](O)[C@@H]1NC(=O)[C@H](CCCCN)NC(=O)[C@@H](Cc2c[nH]c3ccccc23)NC(=O)[C@H](Cc2ccc(O)cc2)NC(=O)[C@@H](NC(=O)[C@@H](Cc2ccccc2)NC(=O)CCOCCOCCOCCOCCON=Cc2ccc(CNC(=O)OC3CCCc4cnnc(-c5ccc(CC(=O)NCC[N+](C)(C)C[B-](F)(F)F)cc5)c4CC3)cc2)CSSC[C@@H](C(=O)N[C@H](CO)[C@@H](C)O)NC1=O` (some centres unmarked) [[^18F]14], the “stability in the formulated solution” value ([1]; sampled at 9 h) is reported as “stable”, the “enzymatic stability (in words)” value ([2]; radio-HPLC) is reported as “a polar radiometabolite was detected” and the tissue to tissue ratio at 1 h ([3]; baseline) is reported as 0.3. It also gave a tissue uptake at 1 h ([3]; baseline, read-out: blood) of 10.2 ± 2.3 %ID/g, a tissue uptake at 1 h ([3]; baseline, read-out: brain) of 0.3 ± 0.1 %ID/g and a tissue uptake at 1 h [3, 5] of 17.8 ± 5.2 %ID/g. The tissue uptake at 1 h ([3]; baseline, read-out: heart) was 2.4 ± 0.7 %ID/g, the tissue uptake at 1 h ([3]; baseline, read-out: kidney) was 14.3 ± 4.5 %ID/g and the tissue uptake at 1 h ([3]; baseline, read-out: liver) was 30 ± 9.4 %ID/g. For the same compound, the tissue uptake at 1 h ([3]; baseline, read-out: lung) was 6.2 ± 2.4 %ID/g, the tissue uptake at 1 h ([3]; baseline, read-out: muscle) was 0.6 ± 0.2 %ID/g and the tissue uptake at 1 h ([3]; baseline, read-out: pancreas) was 1.1 ± 0.2 %ID/g. It also gave a tissue uptake at 1 h ([3]; baseline, read-out: skin) of 2.1 ± 0.9 %ID/g, a tissue uptake at 1 h ([3]; baseline, read-out: spleen) of 1.2 ± 0.5 %ID/g and a tissue uptake at 1 h ([3]; baseline, read-out: urine) of ~85 %ID/g. It also gave a tissue uptake at 1 h [3, 6] of 7.4 ± 1.5 %ID/g, a tissue uptake at 1 h [3, 7] of 0.3 ± 0.1 %ID/g and a tissue uptake at 1 h [3, 8] of 10.7 ± 6.3 %ID/g. It also gave a tissue uptake at 1 h [3, 9] of 1.9 ± 0.4 %ID/g, a tissue uptake at 1 h [3, 10] of 11.4 ± 3.7 %ID/g and a tissue uptake at 1 h [3, 11] of 26.2 ± 15.8 %ID/g. The tissue uptake at 1 h [3, 12] was 5.5 ± 2.7 %ID/g, the tissue uptake at 1 h [3, 13] was 0.5 ± 0.1 %ID/g and the tissue uptake at 1 h [3, 14] was 0.8 ± 0.5 %ID/g. The tissue uptake at 1 h [3, 15] was 1.6 ± 0.4 %ID/g, the tissue uptake at 1 h [3, 16] was 0.9 ± 0.1 %ID/g and the tissue uptake at 1 h [3, 17] was 41.9 ± 15.7 %ID/g. The tissue uptake at 1 h [3, 18] was 1.1 ± 1.1 %ID/g, the tissue uptake at 1 h [3, 19] was 0.7 ± 0.3 %ID/g and the tissue uptake at 1 h [3, 20] was 1.1 ± 0.5 %ID/g. For the same compound, the tissue uptake at 2 h [3, 21] was 1.7 ± 0.1 %ID/g, the tissue uptake at 1 h [3, 22] was 2.6 ± 0.8 %ID/g and the tissue uptake at 1 h [3, 23] was 1.9 ± 0.4 %ID/g. For the same compound, the tissue uptake at 1 h [3, 24] was 0.6 ± 0.2 %ID/g, the tissue uptake at 1 h [3, 25] was 0.6 ± 0.2 %ID/g and the tissue uptake at 1 h [3, 26] was 1.3 ± 0.6 %ID/g. For the same compound, the tissue uptake at 1 h [3, 27] was 1 ± 0.6 %ID/g, the tissue uptake at 2 h [3, 28] was 2.9 ± 1.4 %ID/g and the tissue uptake at 1 h [3, 29] was 3.1 ± 0.7 %ID/g. The tissue uptake at 1 h [3, 30] was 2.2 ± 0.6 %ID/g, the urine [4] was 84.9 ± 58.6 % ID/g and the “defluorination in vivo (in words)” value [4] was “A minor degree of defluorination could not be ruled out”.
In the case of `C[C@@H](O)[C@@H]1NC(=O)[C@H](CCCCN)NC(=O)[C@@H](Cc2c[nH]c3ccccc23)NC(=O)[C@H](Cc2ccc(O)cc2)NC(=O)[C@@H](NC(=O)[C@@H](Cc2ccccc2)NC(=O)CCOCCOCCOCCOCCON=Cc2ccc(C(=O)NCCOCCOCCOCCNC(=O)OC3CCCc4cnnc(-c5ccc(CC(=O)NCC[N+](C)(C)C[B-](F)(F)F)cc5)c4CC3)cc2)CSSC[C@@H](C(=O)N[C@H](CO)[C@@H](C)O)NC1=O` (some centres unmarked) [[^18F]15], the “stability in the formulated solution” value ([1]; several time points up to 6 h) is reported as “stable”, the “enzymatic stability, time stable” value ([2]; 37 °C) is reported as “at least 180 min” and the tissue to tissue ratio at 1 h ([3]; blocked) is reported as 0.4. The tissue to tissue ratio at 1 h ([3]; baseline) was 0.5, the tissue uptake at 1 h ([3]; baseline, read-out: blood) was 9.6 ± 3.3 %ID/g and the tissue uptake at 1 h ([3]; baseline, read-out: brain) was 0.3 ± 0.1 %ID/g. For the same compound, the tissue uptake at 1 h [3, 5] was 9.1 ± 7 %ID/g, the tissue uptake at 1 h ([3]; baseline, read-out: heart) was 2.6 ± 0.6 %ID/g and the tissue uptake at 1 h ([3]; baseline, read-out: kidney) was 21 ± 4.5 %ID/g. For the same compound, the tissue uptake at 1 h ([3]; baseline, read-out: liver) was 19 ± 5.4 %ID/g, the tissue uptake at 1 h ([3]; baseline, read-out: lung) was 5.4 ± 2.3 %ID/g and the tissue uptake at 1 h ([3]; baseline, read-out: muscle) was 1.1 ± 0.9 %ID/g. The tissue uptake at 1 h ([3]; baseline, read-out: pancreas) was 1.6 ± 0.5 %ID/g, the tissue uptake at 1 h ([3]; baseline, read-out: skin) was 2.4 ± 0.9 %ID/g and the tissue uptake at 1 h ([3]; baseline, read-out: spleen) was 1.4 ± 0.3 %ID/g. The tissue uptake at 1 h ([3]; baseline, read-out: urine) was ~174 %ID/g, the tissue uptake at 1 h [3, 6] was 7.2 ± 2.5 %ID/g and the tissue uptake at 1 h [3, 7] was 0.2 ± 0.1 %ID/g. For the same compound, the tissue uptake at 1 h [3, 8] was 18.8 ± 10.3 %ID/g, the tissue uptake at 1 h [3, 9] was 2.1 ± 0.5 %ID/g and the tissue uptake at 1 h [3, 10] was 15.9 ± 2.7 %ID/g. The tissue uptake at 1 h [3, 11] was 11.8 ± 4.7 %ID/g, the tissue uptake at 1 h [3, 12] was 3.6 ± 1.4 %ID/g and the tissue uptake at 1 h [3, 13] was 0.5 ± 0.1 %ID/g. For the same compound, the tissue uptake at 1 h [3, 14] was 0.9 ± 0.5 %ID/g, the tissue uptake at 1 h [3, 15] was 1.6 ± 0.2 %ID/g and the tissue uptake at 1 h [3, 16] was 0.9 ± 0.2 %ID/g. It also gave a tissue uptake at 1 h [3, 17] of 303 ± 146 %ID/g, a tissue uptake at 1 h [3, 18] of 1 ± 0.7 %ID/g and a tissue uptake at 1 h [3, 19] of 0.7 ± 0.3 %ID/g. The tissue uptake at 1 h ([3]; occipital bone, baseline, read-out: bone, occipital) was 0.9 ± 0.3 %ID/g, the tissue uptake at 1 h [3, 20] was 1 ± 0.3 %ID/g and the tissue uptake at 2 h [3, 21] was 0.6 ± 0.1 %ID/g. The tissue uptake at 1 h [3, 22] was 3.6 ± 2.1 %ID/g, the tissue uptake at 1 h [3, 23] was 5 ± 1.7 %ID/g and the tissue uptake at 1 h [3, 24] was 1.4 ± 0.8 %ID/g. The tissue uptake at 1 h [3, 25] was 0.6 ± 0.1 %ID/g, the tissue uptake at 1 h [3, 26] was 1.1 ± 0.4 %ID/g and the tissue uptake at 1 h [3, 27] was 0.8 ± 0.2 %ID/g. It also gave a tissue uptake at 2 h [3, 28] of 0.6 ± 0.4 %ID/g, a tissue uptake at 1 h [3, 29] of 4.5 ± 1 %ID/g and a tissue uptake at 1 h [3, 30] of 3.1 ± 0.5 %ID/g. For the same compound, the urine [4] was 174.2 ± 73.4 % ID/g and the “defluorination in vivo (in words)” value [4] was “no indication of defluorination”.
